Assay results: patent US10342796B2, “Acrylanilide derivative, preparation method, and applications thereof in pharmacy” (Ancureall Pharmaceutical (Shanghai) Co., Ltd., priority 2015, dated 2019)
Like-named read-outs stand apart in the source and are kept apart here.

Legend:
Assay in all cases: Growth inhibition GI50 in vitro (CCK8/MTT, 72 h)
Assay type in all cases: cell-based
Kasumi-1 (Kit N822K) = conditions: Homo sapiens
Procedure: Kasumi-1 is a leukemia cell line positively expressing c-Kit N822K mutant Abnormal variation of c-Kit often appears in cancer patients. Kasumi-1 cell line was cultured with 1×RPMI1640 complete medium (supplement with 10% FBS).
(§1) The suspension cells were collected by centrifugation. The supernatant was discard and the cell pellet was resuspended and counted. Different cell concentrations (5˜10×10^4 cells/mL) were prepared according to the growth cycle of each cell line and then seeded on a 96-well plate (Corning), 100 μL/well. The cells were incubated over night at 37° C., 5% CO2. The compounds were added to the cells on the second day with 2 wells in parallel. The final concentration of organic solvent shall not exceed 1%. The cells were continually incubated for 72 h, and then subjected to MTT assay.
(§2) The present compounds and the reference compounds were dissolved with DMSO (Sigma), respectively. […] The storage concentration of compounds was 10 mM and kept at −20° C. They were diluted by 2 times or 10 times with serial dilution before using.
(§3) Dojindo CCK8 reagent kit was used as MTT assay. […] FC meter was used as microplate reader.
(§4) Adherent cell culture medium was discard and immediately replaced with fresh prepared medium which contains 10% CCK8 reagent (100 μL/well). For the suspension cells, CCK8 was directly added to 10% of the final concentration. The cells were continually incubated for 1˜4 h. When the color of control wells turned to dark yellow, the absorption value was measured at OD450 nm. The cell growth rate was calculated according to the following formula: cell growth rate (%)=100*(T−T0)/(C−T0), T=optical density of drug treatment cell well—optical density of blank control well; T0=optical density of cell well before drug treatment—optical density of blank control well; C=optical density of cell well of solvent control group—optical density of blank control well. […] The experiment was independently repeated 1˜3 times, and subject to biological statistical analysis.
(§5) Growth inhibition assay was conducted in the cell lines shown Table 14 with the different oncogene mutations. Each compound started at 1000 nM as an initial concentration and was diluted by 2 times with serial dilution to 0.03 nM.

K562 (BCR-ABL) = conditions: Homo sapiens
Procedure: Human leukemia cell line K562 (expressing BCR-ABL fusion protein) (ATCC) was cultured with 1×RPMI1640 complete medium (supplement with 10% FBS).
as §1, §2, §3, §4, §5

HEL (Jak2 V167F) = conditions: Homo sapiens
Procedure: Jak2 is a kind of non-receptor PTK (Janus Kinase 2) with great significance in cell growth, differentiation and transformation. Jak2 gene mutation often leads to bone marrow hyperplasia and transformation. Especially Jak2 V167F mutation is common for clinical patients. Human erythroleukemia cell line HEL expressing Jak2 V167F was cultured with 1×RPMI1640 complete medium (supplement with 10% FBS).
as §1, §2, §3, §4, §5

[1] = system: NCI-H1781 (HER2 exon 20 G776VC mutation); conditions: Homo sapiens
SH-SY5Y (ALK F1174L) = conditions: Homo sapiens, EGFR wt
Procedure: Neuroblastoma cell line SH-SY5Y (ALK F1174L positive) (Shanghai Cell Bank of Chinese Academy of Sciences) was cultured with MEM complete medium (supplement with 10% FBS, 1% NEAA, 1% double-antibiotics and 1 mM of sodium pyruvate).
as §1, §2, §3, §4, §5

[2] = HEL, Jak2 V167F, read-out: GI50
[3] = NCI-H1781, Table 16, 1000 nM to 0.03 nM serial dilution, read-out: GI50 H1781 (HER2 G776VC)

Row | Structure (SMILES) | GI50 (Kasumi-1 (Kit N822K)) [nM] | GI50 (K562 (BCR-ABL)) [nM] | GI50 (HEL (Jak2 V167F)) [nM] | GI50 ([1]; NCI-H1781, read-out: GI50 H1781 (HER2 G776VC)) [nM] | GI50 (SH-SY5Y (ALK F1174L)) [nM] | GI50 (HEL (Jak2 V167F); [2]) [nM] | GI50 [1, 3] [nM]
1 | C=CC(=O)Nc1cc(Nc2nccc(-c3cn(C)c4ccccc34)n2)c(OC)cc1N(C)CCN(C)C [AZD9291, reference compound] | > 1000 | > 1000 | > 1000 | 195 | > 1000 | – | –
2 | C=CC(=O)Nc1cc(Nc2nccc(Nc3cccc(Cl)c3)n2)c(OC)cc1N(C)CCN(C)C [Compound 2, N-(5-(4-(3-chloro-phenylamino)-pyrimidin-2-ylamino)-2-(2-(dimethylamino-ethyl)-methyl-amino)-4-methoxyl-phenyl)-acrylamide] | > 1000 | > 1000 | – | – | > 1000 | > 1000 | –
3 | C=CC(=O)Nc1cc(Nc2nccc(Nc3ccc(OCc4ccccn4)c(Cl)c3)n2)c(OC)cc1N(C)CCN(C)C [Compound 18, N-(5-(4-(3-chloro-4-(pyridin-2-methoxyl)phenylamino)pyrimidin-2-ylamino)-2-((2-(dimethylamino)ethyl)(methyl)amino)-4-methoxyl-phenyl)-acrylamide] | > 1000 | > 1000 | – | – | > 1000 | > 1000 | –
4 | C=CC(=O)Nc1cc(Nc2ncc(Cl)c(Nc3ccc(OCc4ccccn4)c(Cl)c3)n2)c(OC)cc1N(C)CCN(C)C [Compound 19, N-(5-(5-chloro-4-(3-chloro-4-(pyridin-2-methoxyl)phenylamino)-pyrimidin-2-ylamino)-2-((2-(dimethylamino)ethyl)(methyl)amino)-4-methoxyl-phenyl)-acrylamide] | > 1000 | > 1000 | – | – | > 1000 | > 1000 | –
5 | C=CC(=O)Nc1cc(Nc2nccc(-n3ccc4c(OC)cccc43)n2)c(OC)cc1N(C)CCN(C)C [Compound 99, N-(5-(4-(4-methoxyl-1H-indol-1-yl)-pyrimidin-2-ylamino)-2-(2-(dimethylamino-ethyl)-methyl-amino)-4-methoxyl-phenyl)-acrylamide] | – | – | – | – | – | – | 1.92
6 | C=CC(=O)Nc1cc(Nc2nccc(-n3cnc4ccccc43)n2)c(OC)cc1N(C)CCN(C)C [Compound 106] | > 1000 | > 1000 | – | – | > 1000 | > 1000 | –
7 | C=CC(=O)Nc1cc(Nc2ncnc(Nc3cccc(F)c3)n2)c(OC)cc1N(C)CCN(C)C [Compound 114, N-(5-(4-(3-fluoro-phenylamino)-[1,3,5]triazin-2-ylamino)-2-((2-dimethylamino-ethyl)-methyl-amino)-4-methoxyl-phenyl)-acrylamide] | < 100 | > 1000 | – | – | > 1000 | > 1000 | –
8 | C=CC(=O)Nc1cc(Nc2ncnc(Nc3cccc(Br)c3)n2)c(OC)cc1N1CCC(N2CCCC2)CC1 [Compound 118] | < 100 | > 1000 | – | – | – | > 1000 | –
9 | C=CC(=O)Nc1cc(Nc2cc(Nc3cc(OC)c(Cl)cc3Cl)ncn2)c(OC)cc1N(C)CCN(C)C [Compound 136, N-(5-(6-(2,4-dichloro-5-methoxyl-phenylamino)-pyrimidin-4-ylamino)-2-((2-dimethylamino-ethyl)-methyl-amino)-4-methoxyl-phenyl)-acrylamide] | – | – | – | – | – | – | 7.32
10 | C=CC(=O)Nc1cc(Nc2cc(Nc3ccc(F)c(Cl)c3)ncn2)c(OC)cc1N(C)CCN(C)C [Compound 140, N-(5-(6-(3-chloro-4-fluoro-phenylamino)-pyrimidin-4-ylamino)-2-((2-dimethylamino-ethyl)-methyl-amino)-4-methoxyl-phenyl)-acrylamide] | > 1000 | > 1000 | – | – | > 1000 | > 1000 | –
11 | C=CC(=O)Nc1cc(Nc2cc(Nc3ccc(F)c(Cl)c3)ncn2)c(OC)cc1N1CCN(C2CCN(C)CC2)CC1 [Compound 147, N-(5-(6-(3-chloro-4-fluoro-phenylamino)-pyrimidin-4-ylamino)-4-methoxyl-2-(4-(1-methylpiperidin-4-yl)-piperazin-1-yl)-phenyl)-acrylamide] | > 1000 | > 1000 | – | – | > 1000 | > 1000 | –
12 | C=CC(=O)Nc1cc(Nc2cc(-c3cn(C(C)C)c4ccccc34)ncn2)c(OC)cc1N(C)CCN(C)C [Compound 183] | > 1000 | > 1000 | – | – | > 1000 | > 1000 | –
13 | C=CC(=O)Nc1cc(Nc2nccc(-n3ccc4c(OCCOC)cccc43)n2)c(OC)cc1N(C)CCN(C)C [Compound 205, N-(5-(4-(4-(2-methoxyl-ethoxyl)-1H-indol-1-yl)-pyrimidin-2-ylamino)-2-(2-(dimethylamino-ethyl)-methyl-amino)-4-methoxyl-phenyl)-acrylamide] | – | – | – | – | – | – | 1.52
14 | C=CC(=O)Nc1cc(Nc2cc(Nc3ccc(OCC4CCOCC4)c(Cl)c3)ncn2)c(OC)cc1N(C)CCN(C)C [Compound 216, N-(5-(6-(3-chloro-4-(tetrahydropyran-4-yl-methoxyl)-phenylamino)-pyrimidin-4-ylamino)-2-((2-dimethylaminoethyl)-methyl-amino)-4-methoxyphenyl)-acrylamide] | – | – | – | – | – | – | 19.5
15 | C=CC(=O)Nc1cc(Nc2cc(Nc3cc(F)c(OC)c(Cl)c3)ncn2)c(OC)cc1N(C)CCN(C)C [Compound 236, N-(5-(6-(3-chloro-5-fluoro-4-methoxyphenylamino)-pyrimidin-4-yl-amino)-2-((2-dimethylamino-ethyl)-methyl-amino)-4-methoxyl-phenyl)-acrylamide] | – | – | – | – | – | – | 0.96
